Molecules are shown by their SMILES.

For 8 molecules, Stimulation and inhibition results are on record in ChEMBL document CHEMBL1133739, “Fenchylamine sulfonamide inhibitors of amyloid beta peptide production by the gamma-secretase proteolytic pathway: potential small-molecule therapeutic agents for the treatment of Alzheimer's disease” (J Med Chem, 2000).

Test [1] addresses Amyloid-beta precursor protein (Homo sapiens) (UniProt P05067). Nature of the test: Observed stimulation of the production of soluble beta-amyloid precursor protein. The test is classed as functional.
Test [2] shares this target. The experiment in a line: Inhibition of A-beta-42 production by inhibiting Gamma-secretase proteolytic pathway in HEK293 cell stably transfected with a double mutant form of human APP(K595N/M596L), at 2.5 uM concentration. It is filed as cell-based.

Chain of Amyloid-beta precursor protein (Homo sapiens) (P05067 whole entry): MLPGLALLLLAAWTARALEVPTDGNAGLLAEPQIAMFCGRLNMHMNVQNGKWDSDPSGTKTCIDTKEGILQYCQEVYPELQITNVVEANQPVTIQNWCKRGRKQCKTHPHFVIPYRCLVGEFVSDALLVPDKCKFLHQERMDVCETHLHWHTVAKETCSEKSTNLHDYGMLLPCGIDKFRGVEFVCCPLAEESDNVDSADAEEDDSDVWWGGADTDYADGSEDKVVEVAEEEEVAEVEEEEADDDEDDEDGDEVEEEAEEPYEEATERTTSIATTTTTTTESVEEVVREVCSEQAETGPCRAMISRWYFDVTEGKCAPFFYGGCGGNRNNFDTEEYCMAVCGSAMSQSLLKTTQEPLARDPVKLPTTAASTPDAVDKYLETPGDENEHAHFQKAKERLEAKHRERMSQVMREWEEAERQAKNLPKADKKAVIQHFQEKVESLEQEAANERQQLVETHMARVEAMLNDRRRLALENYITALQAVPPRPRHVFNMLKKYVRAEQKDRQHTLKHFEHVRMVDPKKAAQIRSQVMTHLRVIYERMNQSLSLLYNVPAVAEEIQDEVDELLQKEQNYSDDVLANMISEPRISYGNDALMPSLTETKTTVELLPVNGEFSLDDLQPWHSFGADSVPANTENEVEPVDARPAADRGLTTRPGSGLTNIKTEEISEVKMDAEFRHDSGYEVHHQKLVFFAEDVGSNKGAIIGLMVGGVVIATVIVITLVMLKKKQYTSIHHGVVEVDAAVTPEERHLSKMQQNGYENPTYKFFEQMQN

On to `CC12CC[C@@H](C1)C(C)(C)[C@@H]2NS(=O)(=O)c1ccc(Br)cc1`, for which the Stimulation in test [1] is 0%. In test [2], the inhibition (usually how much of the control response was suppressed) came out at 24%.
On to `CC12CC[C@@H](C1)C(C)(C)[C@H]2NS(=O)(=O)c1ccc(F)cc1`, for which the inhibition in test [2] stood at 0%.
The same measure, in the same setting: the figure for `CC1(C)[C@@H]2CC[C@@](C)(C2)[C@H]1NS(=O)(=O)c1ccc(F)cc1` is 0%.
In test [1], `CC12CCC(C1)C(C)(C)C2NS(=O)(=O)c1ccc(F)cc1` (stereo not drawn) showed a Stimulation of 20%. This molecule also returned an inhibition in test [2] of 31%.
For the molecule `CC12CC[C@@H](C1)C(C)(C)[C@@H]2NS(=O)(=O)c1ccc(Cl)cc1`, the Stimulation in test [1] worked out at 0%. The inhibition in test [2] amounted to 26%.
For `CC12CC[C@@H](C1)C(C)(C)[C@@H]2NS(=O)(=O)c1ccc(F)cc1` (single isomer, unassigned; (+)) the same measures were 23% and 58%.
In test [2], `CC1(C)[C@H]2CC[C@](C)(C2)[C@H]1NS(=O)(=O)c1ccc(F)cc1` gave an inhibition of 19%.
Consider `CC12CC[C@@H](C1)C(C)(C)[C@@H]2NS(=O)(=O)c1cccs1`, for which the Stimulation in test [1] turned out to be 32%. The same molecule registered an inhibition in test [2] of 47%.
